Legend:
[1] = molecular target: T1, hQ23 (HEK-293 cell line stably transfected with one of the members of the KCNQ family) (Homo sapiens, UniProt O43525+O43526); assay: Thallium flux assay for KCNQ channel blockers (FLIPR, BTC dye); format: cell-based; conditions: hQ23 cells, thallium flux assay
T1 construct: expressed in transfected cells; host or cells: HEK-293, stably transfected
Procedure, shortened: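 HEK-293 cells stably expressing a KCNQ member, loaded with BTC-AM (2 μM) in chloride-free buffer, pH 7.3; compounds added at 1% DMSO, then Tl2SO4 stimulus on FLIPR (488/540 nm, 60 s). Minimal active concentration set at ≥4 SD above negative control; IC50 from 10-point 1:3 series, single-site logistic fit versus the positive-control blocker.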

mKCNQ2 = mKCNQ2 (Mus musculus, UniProt Q9Z351); assay: KCNQ patch-clamp: two-electrode voltage clamp on Xenopus laevis oocytes injected with mKCNQ2 cRNA; format: cell-based; conditions: percent inhibition relative to 5 mM TEA blockade at a membrane voltage of −40 mV; mKCNQ2 in oocytes
Procedure: KCNQ Patch-clamp. Frog oocytes were surgically harvested from mature Xenopus laevis that had been anesthetized with 0.15% 3-aminobenzoic acid ethyl ester (tricaine). Only late stage V and VI oocytes were selected for cRNA injection, and the overlying follicle cell layers were enzymatically removed. Each oocyte was injected with approximately 60 ng of the mKCNQ2 cRNA. Following injection, oocytes were maintained at 17° C. in ND96 medium consisting of (in mM): NaCl, 90; KCl, 1.0; CaCl2, 1.0; MgCl2, 1.0; HEPES, 5.0; (pH 7.5) and supplemented with heat-inactivated horse serum (5%) and penicillin/streptomycin (5%).
Two-electrode voltage clamp techniques were used to record membrane currents; recording commenced 3–7 days following cRNA injection (Gribkoff, V. K., et al., Mol. Pharmacol. 1996, 50(1), 206–217). For recording and compound application, oocytes were placed in a recording chamber and incubated in Modified Barth's Solution (MBS) consisting of (in mM): NaCl, 88; NaHCO3, 2.4; KCI, 1.0; HEPES, 10; MgSO4, 0.82; Ca(NO3)2, 0.33; CaCl2, 0.41; (pH 7.5). Voltage-clamp protocols consisted of a series of 4 second duration depolarizing voltage steps from a holding potential of −90 mV to a maximal potential of +40 mV in 10 mV intervals. A family of outward currents was generated under control conditions for comparison with currents elicited in the presence of an experimental compound. Control or drug solutions were continually introduced into the recording chamber using a gravity-flow system with an in-line electronic valve array. A minimum of 5 oocytes was used for each drug concentration; drug concentrations ranged from 0.001 μM to 10 μM. During a single experiment, an oocyte was exposed to as many as three drug concentrations sequentially administered for 5 minutes each. All experiments ended with a 5 minute application of TEA (5 mM), a non-selective, but effective blocker of KCNQ channels. Typically, 5 mM TEA produced a maximal blockade of outward current when measured at the −40 mV membrane voltage (94.6+/−0.5% inhibition, n=112). In this manner, all drug effects could be presented as a percentage of TEA blockade, controlling for the variable levels of channel expression from oocyte to oocyte. Table 1 discloses data for representative examples. Data are expressed as percent inhibition relative to TEA blockade at a membrane voltage of −40 mV: A>50% TEA blockage at 100 nM, B>50% TEA blockage at 1 μM, C<50% TEA blockage at 1.0 μM.

T1 sequence (O43526 whole entry): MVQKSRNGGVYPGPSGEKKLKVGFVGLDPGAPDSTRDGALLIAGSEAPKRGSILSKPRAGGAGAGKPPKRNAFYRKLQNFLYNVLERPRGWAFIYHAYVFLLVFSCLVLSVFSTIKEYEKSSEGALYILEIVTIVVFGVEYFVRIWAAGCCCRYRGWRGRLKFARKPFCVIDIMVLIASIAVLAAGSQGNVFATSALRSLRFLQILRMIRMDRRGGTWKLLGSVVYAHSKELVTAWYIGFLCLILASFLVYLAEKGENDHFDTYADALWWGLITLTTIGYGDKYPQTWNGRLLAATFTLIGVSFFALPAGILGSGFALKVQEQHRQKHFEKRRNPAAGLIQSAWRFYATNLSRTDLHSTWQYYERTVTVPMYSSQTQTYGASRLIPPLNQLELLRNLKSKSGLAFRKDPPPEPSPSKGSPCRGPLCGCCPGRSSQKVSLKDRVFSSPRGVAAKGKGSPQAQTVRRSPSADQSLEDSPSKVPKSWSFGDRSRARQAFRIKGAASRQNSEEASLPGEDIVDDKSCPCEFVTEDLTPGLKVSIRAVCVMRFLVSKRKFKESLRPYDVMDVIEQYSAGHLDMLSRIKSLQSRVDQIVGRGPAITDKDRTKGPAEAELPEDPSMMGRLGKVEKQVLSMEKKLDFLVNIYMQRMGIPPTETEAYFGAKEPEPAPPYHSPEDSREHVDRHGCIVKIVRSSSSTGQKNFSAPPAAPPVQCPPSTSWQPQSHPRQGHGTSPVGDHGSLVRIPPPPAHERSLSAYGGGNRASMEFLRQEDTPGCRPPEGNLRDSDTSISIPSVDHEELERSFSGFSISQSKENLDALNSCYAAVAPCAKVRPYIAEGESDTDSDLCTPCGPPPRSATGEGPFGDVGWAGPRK
T1 sequence (O43525 whole entry): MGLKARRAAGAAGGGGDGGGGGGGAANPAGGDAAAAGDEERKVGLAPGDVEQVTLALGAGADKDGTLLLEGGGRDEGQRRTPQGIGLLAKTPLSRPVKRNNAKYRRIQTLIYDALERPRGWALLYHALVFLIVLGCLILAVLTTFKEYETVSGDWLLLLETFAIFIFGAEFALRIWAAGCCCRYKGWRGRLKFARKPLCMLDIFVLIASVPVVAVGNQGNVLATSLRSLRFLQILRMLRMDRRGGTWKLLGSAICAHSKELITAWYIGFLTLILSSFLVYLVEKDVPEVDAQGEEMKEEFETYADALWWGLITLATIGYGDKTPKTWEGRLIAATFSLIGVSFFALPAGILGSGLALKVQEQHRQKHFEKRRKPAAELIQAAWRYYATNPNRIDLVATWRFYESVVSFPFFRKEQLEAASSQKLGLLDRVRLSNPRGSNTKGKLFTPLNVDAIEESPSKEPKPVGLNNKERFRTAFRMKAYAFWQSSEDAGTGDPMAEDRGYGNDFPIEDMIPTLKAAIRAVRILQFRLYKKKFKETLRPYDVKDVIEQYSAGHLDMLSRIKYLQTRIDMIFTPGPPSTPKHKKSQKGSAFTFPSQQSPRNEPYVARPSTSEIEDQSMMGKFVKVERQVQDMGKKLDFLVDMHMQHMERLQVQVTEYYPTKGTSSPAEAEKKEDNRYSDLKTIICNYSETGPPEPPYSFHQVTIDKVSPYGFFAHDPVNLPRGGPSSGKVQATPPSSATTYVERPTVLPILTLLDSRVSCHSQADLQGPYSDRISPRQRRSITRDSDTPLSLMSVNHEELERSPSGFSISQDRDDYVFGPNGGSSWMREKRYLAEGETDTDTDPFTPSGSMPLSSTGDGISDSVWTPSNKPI
mKCNQ2, sequence (Q9Z351 whole entry): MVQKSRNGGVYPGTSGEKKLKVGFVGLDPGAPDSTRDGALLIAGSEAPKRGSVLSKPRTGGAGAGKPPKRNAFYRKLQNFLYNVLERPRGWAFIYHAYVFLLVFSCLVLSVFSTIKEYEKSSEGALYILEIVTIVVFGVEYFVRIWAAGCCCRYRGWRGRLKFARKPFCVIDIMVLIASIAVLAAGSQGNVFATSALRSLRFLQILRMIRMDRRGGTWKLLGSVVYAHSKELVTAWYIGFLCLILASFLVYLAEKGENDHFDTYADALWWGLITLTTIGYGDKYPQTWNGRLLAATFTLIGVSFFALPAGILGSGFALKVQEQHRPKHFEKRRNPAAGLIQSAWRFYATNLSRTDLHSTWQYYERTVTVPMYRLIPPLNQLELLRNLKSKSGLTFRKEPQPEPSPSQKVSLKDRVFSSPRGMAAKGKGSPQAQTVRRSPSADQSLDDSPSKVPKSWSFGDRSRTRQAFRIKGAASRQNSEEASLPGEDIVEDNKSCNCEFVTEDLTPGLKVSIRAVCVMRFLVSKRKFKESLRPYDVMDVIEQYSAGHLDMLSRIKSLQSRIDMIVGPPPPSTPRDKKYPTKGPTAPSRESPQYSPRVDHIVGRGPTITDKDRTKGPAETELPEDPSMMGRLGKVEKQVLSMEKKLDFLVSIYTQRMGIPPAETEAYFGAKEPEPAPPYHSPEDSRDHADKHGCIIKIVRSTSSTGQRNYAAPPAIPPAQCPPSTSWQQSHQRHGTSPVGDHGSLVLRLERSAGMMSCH

With `CC1CCN(c2ncc(C(=O)NCc3ccc(Cl)cc3Cl)c(C3(c4ccc(F)cc4)CCCC3)n2)CC1` [Example 263, 5-pyrimidinecarboxamide, N-[(2,4-dichlorophenyl)methyl]-4-[1-(4-fluorophenyl)cyclopentyl]-2-(4-methyl-1-piperidinyl)-] as the compound, how does the EC50 [1] read?
The EC50 was 17 nM.

What about the “Percent TEA blockage” value (mKCNQ2) of the same compound?
Its value is “A (A > 50% TEA blockage at 100 nM)”.

Reference: patent US7091202B2, “4-arylspirocycloalkyl-2-aminopyrimidine carboxamide KCNQ potassium channel modulators” (Bristol-Myers Squibb Company, priority 2004, dated 2006)
